{
  "source": "BindingDB's records for doi:10.1021/ja00082a004",
  "about": "(Nci-Fcrdc, 1994)",
  "data": [
    {"molecular_target": "T1, Dimer of Gag-Pol polyprotein [489-587] (Human immunodeficiency virus 1, UniProt P12497)", "T1 construct": "489-587", "assay": "Protease Inhibition Assay", "settings": "pH 4.7; 30 °C", "protocol": "HIV-1 protease activity was measured by a continuous fluorometric assay using the internally quenched fluorogenic substrate DABCYL-GABA-Ser-Gln-Tyr-Pro-Ile-Val-Gln-EDANS (BACHEM; M-1865) and a SPEX FluoroMax spectrofluorometer (excitation 340 nm, emission 490 nm). The apparent Ki was estimated by nonlinear regression (GraFit, Erithacus Software) to the equation for tight-binding inhibitor.", "units": {"Ki": "nM"}, "values": [
      {"smiles": "CC(C)[C@H](NC(=O)N(C)Cc1ccccn1)C(=O)N[C@@H](Cc1ccccc1)[C@@H](O)[C@H](O)[C@H](Cc1ccccc1)NC(=O)[C@@H](NC(=O)N(C)Cc1ccccn1)C(C)C", "note": "[(2S)-N-[(2S,3R,4R,5S)-3,4-dihydroxy-5-[(2S)-3-methyl-2-{[methyl(pyridin-2-ylmethyl)carbamoyl]amino}butanamido]-1,6-diphenylhexan-2-yl]-3-methyl-2-{[methyl(pyridin-2-ylmethyl)carbamoyl]amino}butanamide]", "Ki": 0.112},
      {"smiles": "CC(C)[C@H](NC(=O)N(C)Cc1ccccn1)C(=O)N[C@@H](Cc1ccccc1)[C@H](O)[C@H](O)[C@H](Cc1ccccc1)NC(=O)[C@@H](NC(=O)N(C)Cc1ccccn1)C(C)C", "note": "[(2S)-N-[(2S,3R,4S,5S)-3,4-dihydroxy-5-[(2S)-3-methyl-2-{[methyl(pyridin-2-ylmethyl)carbamoyl]amino}butanamido]-1,6-diphenylhexan-2-yl]-3-methyl-2-{[methyl(pyridin-2-ylmethyl)carbamoyl]amino}butanamide]", "Ki": 0.012},
      {"smiles": "CC(C)[C@H](NC(=O)N(C)Cc1ccccn1)C(=O)N[C@@H](Cc1ccccc1)C[C@@H](O)[C@H](Cc1ccccc1)NC(=O)[C@@H](NC(=O)N(C)Cc1ccccn1)C(C)C", "note": "[(2S)-N-[(2S,3R,5S)-3-hydroxy-5-[(2S)-3-methyl-2-{[methyl(pyridin-2-ylmethyl)carbamoyl]amino}butanamido]-1,6-diphenylhexan-2-yl]-3-methyl-2-{[methyl(pyridin-2-ylmethyl)carbamoyl]amino}butanamide]", "Ki": 0.004},
      {"smiles": "CC(C)[C@H](NC(=O)N(C)Cc1ccccn1)C(=O)N[C@@H](Cc1ccccc1)[C@H](O)[C@@H](O)[C@H](Cc1ccccc1)NC(=O)[C@@H](NC(=O)N(C)Cc1ccccn1)C(C)C", "note": "[JMC51852 Inhibitor PP]", "Ki": 0.011}
    ]}
  ]
}
